# From patent publication US20200277262A1, “N-(CYANO-SUBSTITUTED BENZYL OR PYRIDINYLMETHYL)-3-HYDROXYPICOLINAMIDE DERIVATIVES” (Takeda Pharmaceutical Company Limited, priority 2017, published 2020)
# What was measured:
# [1] = molecular target: T1, PHD2 enzyme (residues 181-417) (Homo sapiens, UniProt Q9GZT9); test: Inhibition of PHD2 Enzyme (LC/MS detection of hydroxylated peptide); assay type: biochemical; details: 5 nM enzyme, 1 μM biotin-labeled peptide, 2 μM 2-oxoglutarate, 60 min pre-incubation, pH 7.3; -log(IC50), IC50 molar; read-out: Inhibition of PHD2 (pIC50) (converted)
# T1 construct: The IC50 values for the PHD2 enzyme (residues 181-417) were determined
# T1 sequence (Q9GZT9 181-417): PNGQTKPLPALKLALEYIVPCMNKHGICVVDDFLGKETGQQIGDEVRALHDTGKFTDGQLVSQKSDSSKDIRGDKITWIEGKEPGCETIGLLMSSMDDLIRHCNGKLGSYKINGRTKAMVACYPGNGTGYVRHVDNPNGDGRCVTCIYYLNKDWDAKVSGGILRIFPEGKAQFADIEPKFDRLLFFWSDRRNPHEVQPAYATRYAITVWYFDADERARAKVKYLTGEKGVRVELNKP
# Protocol: The IC50 values for the PHD2 enzyme (residues 181-417) were determined by mixing increasing amounts of an inhibitor with a fixed amount of enzyme (5 nM, final concentration) and Biotin-labeled peptide (Biotin-Asp-Leu-Glu-Met-Leu-Ala-Pro-Tyr-Ile-Pro-Met-Asp-Asp-Asp-Phe-Gln-Leu, 1 μM final concentration) and 2-oxyglutarate (2 μM final concentration) in 50 mM HEPES, 50 mM KCl, 0.5 mM TCEP, 2 μM FeCl2, 0.1 mg/mL BSA, at pH 7.3. The reaction was conducted by pre-incubating the enzyme in the presence of the inhibitor for 60 minutes at room temperature. The activity of the free enzyme was measured by adding the peptide, the 2-oxoglutarate, and ascorbic acid (1 mM final concentration). The enzymatic activity was quenched after 60 minutes by adding an excess of a tight binding inhibitor to the assay mixture. The amount of product released was measured by using a LC/MS system (Agilent HPLC with Applied Biosystems API3000 Mass Spectrometer). Data were analyzed using the classical isotherm equation for the determination of IC50 values and are reported in Table 1, below, as pIC50, i.e., −log(IC50), where IC50 is molar concentration of the test compound at 50% inhibition.
# (§1) Table 1 lists biological data for some of the compounds shown in the examples, where larger pIC50 and pEC50 values represent higher potency or activity, respectively. The IC50 data (reported in Table 1 as pIC50) were obtained using the enzyme-based assay described in the specification under the heading “Inhibition of PHD2 Enzyme.” The EC50 data (reported in Table 1 as pEC50) were obtained using the cell-based assay described in the specification under the heading “Cell-based HIF-α Stabilization Assay.”
# [2] = system: HIF1a protein content in H9c2 rat cardiomyocytes; test: Cell-based HIF-α Stabilization Assay (HIF1a ELISA); details: H9c2 cells, 24 hours compound incubation, concentration giving 50% of desferrioxamine maximum response, -log(EC50), EC50 molar, read-out: Stabilization of HIF-α (pEC50) (converted)
# Protocol: H9c2 rat cardiomyocytes (ATCC) were seeded in 96-well tissue culture microplates and cultured for 24 hours prior to addition of compounds (11 point range of serial dilutions) or DMSO vehicle. After 24 hours of compound incubation, whole cell extracts were prepared by lysing cells in cell extraction buffer containing protease and phosphatase inhibitors (Meso-Scale Discovery). HIF1a protein content was assessed by ELISA (Meso-Scale Discovery) and expressed as % relative to the maximum response obtained from the positive control, desferrioxamine (Sigma-Aldrich). EC50 for each compound was obtained by curve-fitting using XLfit4 MicroSoft Excel curve-fitting software to calculate the compound concentration that results in 50% of the desferrioxamine maximum response.
# as §1
IC50 [1],SMILES,EC50 [2]
63.1 nM,"N#Cc1ccc(CNC(=O)c2ncccc2O)cc1 [Example 1, N-(4-cyanobenzyl)-3-hydroxypicolinamide]",10000 nM
3160 nM,"N#Cc1cccc(CNC(=O)c2ncccc2O)c1 [Example 2, N-(3-cyanobenzyl)-3-hydroxypicolinamide, reference compound]",–
1000 nM,"N#Cc1ccc(CNC(=O)c2ncccc2O)cn1 [Example 3, N-((6-cyanopyridin-3-yl)methyl)-3-hydroxypicolinamide]",–
20 nM,"Cc1cc(C#N)ccc1CNC(=O)c1ncccc1O [Example 4, N-(4-cyano-2-methylbenzyl)-3-hydroxypicolinamide]",7940 nM
31.6 nM,"N#Cc1ccc(CNC(=O)c2ncccc2O)c(F)c1 [Example 5, N-(4-cyano-2-fluorobenzyl)-3-hydroxypicolinamide]",7940 nM
31.6 nM,"N#Cc1ccc(CNC(=O)c2ncccc2O)cc1F [Example 6, N-(4-cyano-3-fluorobenzyl)-3-hydroxypicolinamide]",6310 nM
3980 nM,"N#Cc1ccc(CNC(=O)c2ncccc2O)c(C(F)(F)F)c1 [Example 7, N-(4-cyano-2-(trifluoromethyl)benzyl)-3-hydroxypicolinamide]",–
100 nM,"CCN1CCN(C(=O)c2cnc(C(=O)NCc3ccc(C#N)cc3C)c(O)c2)CC1 [Example 8, N-(4-cyano-2-methylbenzyl)-5-(4-ethylpiperazine-1-carbonyl)-3-hydroxypicolinamide]",12600 nM
50.1 nM,"CCN1CCN(C(=O)c2cnc(C(=O)N[C@@H]3CCc4cc(C#N)ccc43)c(O)c2)CC1 [Example 9, (R)—N-(5-cyano-2,3-dihydro-1H-inden-1-yl)-5-(4-ethylpiperazine-1-carbonyl)-3-hydroxypicolinamide]",12600 nM
12.6 nM,"Cc1cc(C#N)cc(C)c1CNC(=O)c1ncccc1O [Example 10, N-(4-cyano-2,6-dimethylbenzyl)-3-hydroxypicolinamide]",3160 nM
31.6 nM,"Cc1cnc(C(=O)NCc2c(C)cc(C#N)cc2C)c(O)c1 [Example 11, N-(4-cyano-2,6-dimethylbenzyl)-3-hydroxy-5-methylpicolinamide]",7940 nM
39.8 nM,"Cc1cc(CNC(=O)c2ncccc2O)c(C)cc1C#N [Example 12, N-(4-cyano-2,5-dimethylbenzyl)-3-hydroxypicolinamide]",25100 nM
15.8 nM,"Cc1cc(C#N)c(F)cc1CNC(=O)c1ncccc1O [Example 13, N-(4-cyano-5-fluoro-2-methylbenzyl)-3-hydroxypicolinamide]",10000 nM
12.6 nM,"Cc1c(CNC(=O)c2ncccc2O)ccc(C#N)c1F [Example 14, N-(4-cyano-3-fluoro-2-methylbenzyl)-3-hydroxypicolinamide]",12600 nM
25.1 nM,"N#Cc1ccc(CNC(=O)c2ncccc2O)c(Cl)c1 [Example 15, N-(2-chloro-4-cyanobenzyl)-3-hydroxypicolinamide]",12600 nM
251 nM,"N#Cc1ccc(CNC(=O)c2ncc(C#N)cc2O)cc1 [Example 16, 5-cyano-N-(4-cyanobenzyl)-3-hydroxypicolinamide]",6310 nM
316 nM,"Cc1cc(C#N)ccc1CNC(=O)c1ncc(C#N)cc1O [Example 17, 5-cyano-N-(4-cyano-2-methylbenzyl)-3-hydroxypicolinamide]",50100 nM

IC50 [1],SMILES,EC50 [2]
1260 nM,"N#Cc1ccc2c(c1)CCCC2NC(=O)c1ncccc1O (stereo not drawn) [Example 18, N-(6-cyano-1,2,3,4-tetrahydronaphthalen-1-yl)-3-hydroxypicolinamide]",50100 nM
10 nM,"N#Cc1ccc2c(c1)CC[C@H]2NC(=O)c1ncccc1O [Example 19, (R)—N-(5-cyano-2,3-dihydro-1H-inden-1-yl)-3-hydroxypicolinamide]",6310 nM
12.6 nM,"N#Cc1ccc2c(c1)CC[C@H]2NC(=O)c1ncccc1O [Example 20, (R)—N-(5-cyano-2,3-dihydro-1H-inden-1-yl)-3-hydroxypicolinamide]",–
2510 nM,"N#Cc1ccc2c(c1)CC[C@@H]2NC(=O)c1ncccc1O [Example 21, (S)—N-(5-cyano-2,3-dihydro-1H-inden-1-yl)-3-hydroxypicolinamide]",50100 nM
39.8 nM,"N#Cc1ccc2c(c1)OCC2NC(=O)c1ncccc1O (stereo not drawn) [Example 22, N-(6-cyano-2,3-dihydrobenzofuran-3-yl)-3-hydroxypicolinamide]",7940 nM
31.6 nM,"Cc1cnc(C(=O)N[C@@H]2CCc3cc(C#N)ccc32)c(O)c1 [Example 23, (R)—N-(5-cyano-2,3-dihydro-1H-inden-1-yl)-3-hydroxy-5-methylpicolinamide]",7940 nM
398 nM,"N#Cc1ccc(CNC(=O)c2ncccc2O)nc1 [Example 24, N-((5-cyanopyridin-2-yl)methyl)-3-hydroxypicolinamide]",7940 nM
20 nM,"Cc1cc(C#N)cc(C)c1CNC(=O)c1ncc(Cl)cc1O [Example 25, 5-chloro-N-(4-cyano-2,6-dimethylbenzyl)-3-hydroxypicolinamide]",12600 nM
25.1 nM,"Cc1cc(C#N)cc(C)c1CNC(=O)c1ncc(C#N)cc1O [Example 26, 5-cyano-N-(4-cyano-2,6-dimethylbenzyl)-3-hydroxypicolinamide]",12600 nM
15.8 nM,"Cc1cc(C#N)cc(C)c1CNC(=O)c1ncc(F)cc1O [Example 27, N-(4-cyano-2,6-dimethylbenzyl)-5-fluoro-3-hydroxypicolinamide]",6310 nM
50.1 nM,"Cc1cc(C#N)cc(C)c1CNC(=O)c1ncc(C(F)(F)F)cc1O [Example 28, N-(4-cyano-2,6-dimethylbenzyl)-3-hydroxy-5-(trifluoromethyl)picolinamide]",15800 nM
10 nM,"COc1cnc(C(=O)NCc2c(C)cc(C#N)cc2C)c(O)c1 [Example 29, N-(4-cyano-2,6-dimethylbenzyl)-3-hydroxy-5-methoxypicolinamide]",1580 nM
15.8 nM,"N#Cc1ccc2c(c1)CC[C@H]2NC(=O)c1ncc(F)cc1O [Example 30, (R)—N-(5-cyano-2,3-dihydro-1H-inden-1-yl)-5-fluoro-3-hydroxypicolinamide]",15800 nM
31.6 nM,"N#Cc1ccc2c(c1)CC[C@H]2NC(=O)c1ncc(Cl)cc1O [Example 31, (R)-5-chloro-N-(5-cyano-2,3-dihydro-1H-inden-1-yl)-3-hydroxypicolinamide]",25100 nM
126 nM,"N#Cc1ccc2c(c1)CC[C@H]2NC(=O)c1ncc(C(F)(F)F)cc1O [Example 32, (R)—N-(5-cyano-2,3-dihydro-1H-inden-1-yl)-3-hydroxy-5-(trifluoromethyl)picolinamide]",39800 nM
7.94 nM,"COc1cnc(C(=O)N[C@@H]2CCc3cc(C#N)ccc32)c(O)c1 [Example 33, (R)—N-(5-cyano-2,3-dihydro-1H-inden-1-yl)-3-hydroxy-5-methoxypicolinamide]",6310 nM
251 nM,"Cc1cc(C#N)ccc1CNC(=O)c1ncc(C(F)(F)F)cc1O [Example 37, N-(4-cyano-2-methylbenzyl)-3-hydroxy-5-(trifluoromethyl)picolinamide]",–
